According to patent US20240336608A1, “IL4I1 INHIBITORS AND METHODS OF USE” (Merck Sharp & Dohme LLC, priority 2023, published 2024):

Target: T1, recombinant IL4I1 (Homo sapiens, UniProt Q96RQ9)
T1 construct: purchased R&D Systems 5684-AO-020
T1 sequence (Q96RQ9 22-567): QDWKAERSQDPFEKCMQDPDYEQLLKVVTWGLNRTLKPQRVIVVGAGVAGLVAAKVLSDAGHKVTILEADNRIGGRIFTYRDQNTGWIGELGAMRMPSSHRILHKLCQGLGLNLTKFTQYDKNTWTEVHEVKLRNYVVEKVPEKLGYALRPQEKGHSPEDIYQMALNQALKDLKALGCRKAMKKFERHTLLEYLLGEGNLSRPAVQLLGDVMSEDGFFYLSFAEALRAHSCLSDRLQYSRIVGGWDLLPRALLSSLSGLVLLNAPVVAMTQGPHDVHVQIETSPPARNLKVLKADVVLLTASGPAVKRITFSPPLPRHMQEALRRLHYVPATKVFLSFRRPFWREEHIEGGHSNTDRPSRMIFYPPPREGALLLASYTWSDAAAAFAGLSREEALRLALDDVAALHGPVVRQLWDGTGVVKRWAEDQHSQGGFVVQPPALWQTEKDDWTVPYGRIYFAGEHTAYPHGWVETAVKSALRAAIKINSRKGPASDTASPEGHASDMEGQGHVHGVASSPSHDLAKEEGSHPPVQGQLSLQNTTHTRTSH
Test: IL4I1 Enzymatic Assay (Amplex Red/HRP coupled detection of H2O2, fluorescence)
Assay type: biochemical
Settings: 1 nM recombinant IL4I1; four-hour pre-incubation with compound; 1 mM each Phe, Tyr, Trp; ten-point titration
Method in brief: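 Recombinant IL4I1 (1 nM final) pre-incubated 4 h at ambient temperature with compound (0.5% DMSO) in 50 mM Hepes pH 7.0, 0.005% Tween20; reaction started with 1 mM each Phe/Tyr/Trp plus excess Amplex Red/HRP, run 120 min. H2O2 read as resorufin fluorescence; EC50 from 10-point four-parameter fit.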

Compound | EC50
CC(C)(O)c1cc(C(=O)NCc2cc(-c3ccccc3)no2)on1 [Example 247, 3-(2-hydroxypropan-2-yl)-N-((3-phenylisoxazol-5-yl)methyl)isoxazole-5-carboxamide] | 916 nM
Cc1ccc(-n2cc(C(=O)NCc3ccc(-n4nccn4)nn3)nn2)c(C)n1 (single isomer, unassigned) [Example 344, N-((6-(2H-1,2,3-triazol-2-yl)pyridazin-3-yl)methyl)-1-(2,6-dimethylpyridin-3-yl)-1H-1,2,3-triazole-4-carboxamide] | 67 nM
CCc1ccc(-n2cc(C(=O)NCc3nnc(-c4ccccc4)s3)nn2)c(C)n1 [Example 336, 1-(6-ethyl-2-methylpyridin-3-yl)-N-((5-phenyl-1,3,4-thiadiazol-2-yl)methyl)-1H-1,2,3-triazole-4-carboxamide] | 9 nM
C[C@H](CO)Cn1cc(C(=O)NCc2nnc(-c3ccccc3)s2)nn1 [Example 76, (S)-1-(3-hydroxy-2-methylpropyl)-N-((5-phenyl-1,3,4-thiadiazol-2-yl)methyl)-1H-1,2,3-triazole-4-carboxamide] | 4 nM
Cc1ccc(-n2cc(C(=O)NCc3nnc(-c4ccccc4)s3)nn2)c(=O)[nH]1 [Example 339, 1-(6-methyl-2-oxo-1,2-dihydropyridin-3-yl)-N-((5-phenyl-1,3,4-thiadiazol-2-yl)methyl)-1H-1,2,3-triazole-4-carboxamide] | 174 nM
CC(C)n1cc(C(=O)NCc2nnc(-c3ccncc3)s2)nn1 [Example 269, 1-isopropyl-N-((5-(pyridin-4-yl)-1,3,4-thiadiazol-2-yl)methyl)-1H-1,2,3-triazole-4-carboxamide] | 10 nM
O=C(NCc1nnc(-c2ccccc2)s1)c1cn(CC2(F)CC2)nn1 [Example 150, 1-((1-fluorocyclopropyl)methyl)-N-((5-phenyl-1,3,4-thiadiazol-2-yl)methyl)-1H-1,2,3-triazole-4-carboxamide] | 4 nM
C[C@H](C1COC1)n1cc(C(=O)NCc2nnc(-c3ccccc3)s2)nn1 [Example 149, (R)-1-(1-(oxetan-3-yl)ethyl)-N-((5-phenyl-1,3,4-thiadiazol-2-yl)methyl)-1H-1,2,3-triazole-4-carboxamide] | 132 nM
O=C(NCc1nnc(-c2ccccc2)s1)c1n[nH]c(C2CC2)c1F [Example 31, 5-cyclopropyl-4-fluoro-N-[(5-phenyl-1,3,4-thiadiazol-2-yl)methyl]-1H-pyrazole-3-carboxamide] | 42 nM
Cc1ccc(-n2cc(C(=O)NCc3nnc(-c4ccccc4)s3)nn2)c(C#N)n1 [Example 337, 1-(2-cyano-6-methylpyridin-3-yl)-N-((5-phenyl-1,3,4-thiadiazol-2-yl)methyl)-1H-1,2,3-triazole-4-carboxamide] | 53 nM
O=C(NCc1nnc(-c2ccccc2)s1)c1cn(C2CN(C(=O)C3CC3)C2)nn1 [Example 103, 1-(1-(cyclopropanecarbonyl)azetidin-3-yl)-N-((5-phenyl-1,3,4-thiadiazol-2-yl)methyl)-1H-1,2,3-triazole-4-carboxamide] | 542 nM
O=C(NCc1nnc(-c2ccccc2)s1)c1cn(C(F)(F)F)nn1 [Example 274, N-((5-phenyl-1,3,4-thiadiazol-2-yl)methyl)-1-(trifluoromethyl)-1H-1,2,3-triazole-4-carboxamide] | 31 nM
Cc1n[nH]c(C(=O)NCc2nnc(-c3ccccc3)s2)n1 [Example 27, 3-methyl-N-((5-phenyl-1,3,4-thiadiazol-2-yl)methyl)-1H-1,2,4-triazole-5-carboxamide] | 292 nM
Cc1ccc(-n2cc(C(=O)NCc3nnc(-c4ccccc4Cl)s3)nn2)c(C)n1 [Example 112, N-((5-(2-chlorophenyl)-1,3,4-thiadiazol-2-yl)methyl)-1-(2,6-dimethylpyridin-3-yl)-1H-1,2,3-triazole-4-carboxamide] | 82 nM
O=C(NCc1cc(-c2ccccc2)no1)c1cn(CC(F)(F)F)nn1 [Example 231, N-((3-phenylisoxazol-5-yl)methyl)-1-(2,2,2-trifluoroethyl)-1H-1,2,3-triazole-4-carboxamide] | 30 nM
CC(C)c1cc(C(=O)NCc2nnc(-c3ccccc3)s2)n[nH]1 [Example 2, 5-isopropyl-N-[(5-phenyl-1,3,4-thiadiazol-2-yl)methyl]-1H-pyrazole-3-carboxamide] | 197 nM
Cn1cc(-n2cc(C(=O)NCc3nnc(-c4ccccc4)s3)nn2)cn1 [Example 288, 1-(1-methyl-1H-pyrazol-4-yl)-N-((5-phenyl-1,3,4-thiadiazol-2-yl)methyl)-1H-1,2,3-triazole-4-carboxamide] | 39 nM

Compound | EC50
Cc1ccc(-n2cc(C(=O)NCc3cc(-c4nccs4)on3)nn2)c(C)n1 [Example 273, 1-(2,6-dimethylpyridin-3-yl)-N-((5-(thiazol-2-yl)isoxazol-3-yl)methyl)-1H-1,2,3-triazole-4-carboxamide] | 511 nM
CC(C#N)n1cc(C(=O)NCc2cc(-c3ccncc3)no2)nn1 (single isomer, unassigned) [Example 285, 1-(1-cyanoethyl)-N-((3-(pyridin-4-yl)isoxazol-5-yl)methyl)-1H-1,2,3-triazole-4-carboxamide] | 184 nM
CC(C)(O)Cn1cc(C(=O)NCc2nnc(-c3ccccc3)s2)nn1 [Example 323, 1-(2-hydroxy-2-methylpropyl)-N-((5-phenyl-1,3,4-thiadiazol-2-yl)methyl)-1H-1,2,3-triazole-4-carboxamide] | 205 nM
Cc1ccc(-n2cc(C(=O)NCc3cc(-c4ccccc4Cl)on3)nn2)c(C)n1 [Example 222, N-{[5-(2-chlorophenyl)-1,2-oxazol-3-yl]methyl}-1-(2,6-dimethylpyridin-3-yl)-1H-1,2,3-triazole-4-carboxamide] | 172 nM
Cc1ccc(-n2cc(C(=O)NCc3cc(-c4ccncc4)no3)nn2)c(C)n1 [Example 314, 1-(2,6-dimethylpyridin-3-yl)-N-((3-(pyridin-4-yl)isoxazol-5-yl)methyl)-1H-1,2,3-triazole-4-carboxamide] | 12 nM
O=C(NCc1cc(-c2ccccc2)no1)c1cn(C2COC2)nn1 [Example 253, 1-(oxetan-3-yl)-N-((3-phenylisoxazol-5-yl)methyl)-1H-1,2,3-triazole-4-carboxamide] | 209 nM
O=C(NCc1nnc(-c2ccccc2)s1)c1cc(C2CC2)on1 [Example 35, 5-cyclopropyl-N-[(5-phenyl-1,3,4-thiadiazol-2-yl)methyl]isoxazole-3-carboxamide] | 8 nM
O=C(NCc1nnc(-c2ccccc2)s1)c1cn(-c2cnccn2)nn1 [Example 311, N-((5-phenyl-1,3,4-thiadiazol-2-yl)methyl)-1-(pyrazin-2-yl)-1H-1,2,3-triazole-4-carboxamide] | 294 nM
Cc1cccn2cc(C(=O)NCc3nnc(-c4ccccc4)s3)nc12 [Example 13, 8-methyl-N-((5-phenyl-1,3,4-thiadiazol-2-yl)methyl)imidazo[1,2-a]pyridine-2-carboxamide] | 341 nM
Cc1ccc(-n2cc(C(=O)NCc3nnc(-c4ccccc4)s3)nn2)c(C)n1 [Example 1, 1-(2,6-dimethylpyridin-3-yl)-N-((5-phenyl-1,3,4-thiadiazol-2-yl)methyl)-1H-1,2,3-triazole-4-carboxamide] | 15 nM
O=C(NCc1nnc(-c2ccccc2)s1)c1cn(C[C@@H](F)CO)nn1 [Example 165, (R)-1-(2-fluoro-3-hydroxypropyl)-N-((5-phenyl-1,3,4-thiadiazol-2-yl)methyl)-1H-1,2,3-triazole-4-carboxamide] | 7 nM
C[C@H](CO)n1cc(C(=O)NCc2nnc(-c3ccccc3)s2)nn1 [Example 303, (R)-1-(1-hydroxypropan-2-yl)-N-((5-phenyl-1,3,4-thiadiazol-2-yl)methyl)-1H-1,2,3-triazole-4-carboxamide] | 6 nM
O=C(NCc1nnc(-c2ccccc2)s1)c1cn(CC(O)CO)nn1 (stereo not shown) [Example 191, 1-(2,3-dihydroxypropyl)-N-((5-phenyl-1,3,4-thiadiazol-2-yl)methyl)-1H-1,2,3-triazole-4-carboxamide] | 12 nM
O=C(NCc1nnc(-c2ccccc2)s1)c1cn(C2CCCOC2)nn1 (stereo not shown) [Example 177, N-((5-phenyl-1,3,4-thiadiazol-2-yl)methyl)-1-(tetrahydro-2H-pyran-3-yl)-1H-1,2,3-triazole-4-carboxamide] | 114 nM
Cc1nc(S(C)(=O)=O)ccc1-n1cc(C(=O)NCc2nnc(-c3ccccc3)s2)nn1 [Example 341, 1-(2-methyl-6-(methylsulfonyl)pyridin-3-yl)-N-((5-phenyl-1,3,4-thiadiazol-2-yl)methyl)-1H-1,2,3-triazole-4-carboxamide] | 271 nM
O=C(NCc1nnc(-c2ccccc2)s1)c1cn(C23CC(F)(C2)C3)nn1 [Example 173, 1-(3-fluorobicyclo[1.1.1]pentan-1-yl)-N-((5-phenyl-1,3,4-thiadiazol-2-yl)methyl)-1H-1,2,3-triazole-4-carboxamide] | 334 nM
O=C(NCc1nnc(-c2ccccc2)s1)c1cn(C2CCC(O)C2)nn1 (stereo not shown) [Example 196, 1-(3-hydroxycyclopentyl)-N-((5-phenyl-1,3,4-thiadiazol-2-yl)methyl)-1H-1,2,3-triazole-4-carboxamide] | 11 nM
